melting point [°C] | SMILES
146 to 148 | CC(C)n1c(=O)sc2cc(N)ccc21
100 to 103 | C#CCOC(=O)Cn1cccc1-c1nc(-c2ccc(OC)cc2)c(-c2ccc(OC)cc2)s1
201 to 202 | CC(C)(C)C(NC(=O)c1cccc2c1-c1ccccc1C2=O)Nc1c(Nc2cccnc2)c(=O)c1=O (stereo not drawn)
119 to 121 | COc1cc(-c2nc3ncccc3o2)cc(C(C)(C)C)c1
161 to 162 | Cc1ccc(-c2ccc3c(c2)C=C(C(=O)Nc2ccc(CSC4CCCCC4)cc2)CCO3)cc1
118 to 119 | N#CC1(c2cccs2)CCC(=O)CC1
163 to 167 | COC(=O)C=Cc1ccc(C=CC(=O)OC)cc1
47 to 48.5 | CCC[C@](CC=O)(CCc1ccccc1)OCOc1ccc(-c2ccccc2)cc1
153 to 154 | O=C(NC(Cc1ccccc1)c1ccccn1)c1ccccc1 (stereo not drawn)
186 to 188 | O=C(O)COc1cccc2c1CCc1sc(S(=O)(=O)C(c3ccc(F)cc3)c3ccc(F)cc3)nc1-2
162 to 164 | O=C1C=CC(=O)N1c1ccc(Oc2ccc3ccc(Oc4ccc(N5C(=O)C=CC5=O)cc4)cc3c2)cc1
86 to 88 | CCCCCCCCCCCCc1ccccc1C(Sc1nnnn1CCCC(=O)O)C(=O)O (stereo not drawn)
136 to 138 | C=CCn1nnc2cc(F)c(-n3c(=O)cc(C(F)(F)F)n(C)c3=O)cc21
153 to 160 | C/C=C/C(=O)Nc1ccc2ncnc(Nc3cccc(Br)c3)c2c1
> 250 | O=c1[nH]c2cc3ccc(C(F)(F)F)cc3nc2[nH]1
106 to 110 | CNCC(=O)N1c2ccccc2N2CCc3cccc(c32)C1C (stereo not drawn)
157 to 158 | N#Cc1cccnc1N1CCN(CC(=O)Nc2cccc(C(F)(F)F)c2)CC1
140 to 142 | CCNc1cc(OC)c(C(F)(F)F)cc1[N+](=O)[O-]
152 to 154 | CC(=O)c1ccc(-c2ccc(F)cc2)c(O)c1
162 to 166 | CN(C)N=Nc1cc(-c2ccccc2)sc1C(=O)O
201 to 204 | CCOC(=O)c1cn2c(C)nnc2cc1Nc1ccc(I)cc1F
162 to 165 | Cc1nc2cc(Cl)ccc2c(=O)n1C
114 to 117 | Cc1ccc(N2CCCN(c3ccnc4sc(C(N)=O)c(N)c34)CC2)cc1[N+](=O)[O-]
266 to 267 | O=C(O)c1ccc(C(=O)c2cccnc2)cc1

melting point [°C] | SMILES
150 to 152 | Cc1ccc(S(=O)(=O)OCC2CN(c3cc(F)c(N4CCN(C(=O)OC(C)(C)C)CC4)c(F)c3)C(=O)O2)cc1 (stereo not drawn)
97 to 99 | COc1ccc([C@H](C)NC(=O)c2cccnc2Oc2ccc(F)cc2)cc1
98 to 101 | COc1ccc(-n2cc(C(=O)N(CC(=O)O)c3ccc(OCC(C)(C)C)c(C#N)c3)c(C)n2)cc1
113 to 115 | COC(=O)C(Cc1c[nH]c2ccccc12)NCOC(C)[Si](C)(C)C (racemic)
122 to 124 | CCOC(=O)N1CCC(=NO)c2cc(F)ccc21
212 | COC(=O)c1ccc(C(=O)Nc2cc3c4c(c2)CCCC4(C)CCC3)s1
66 to 75.5 | CC1Cc2c(c(Br)cc(F)c2-n2c(=O)cc(C(F)(F)F)n(C)c2=O)O1 (stereo not drawn)
202 to 203 | O=C(CCO)Nc1cccc(-c2ccc3c(c2)C(c2ccc(Cl)cc2Cl)CC3)c1 (stereo not drawn)
82 to 85 | COc1ccc(CN(C)CCCCc2ccc(NC(=O)c3cnc4ccccc4n3)cc2)cc1OC
231 to 233 | CCCc1nc2ccccc2n1CCC1CCN(c2ccccc2-c2nnn[nH]2)CC1
128 to 130 | COc1ccc(C2OC3(CCNCC3)N3CCCCC23)cc1 (stereo not drawn)
236 to 237 | CCN1CCN(c2c(F)c(N)c3c(=O)c(C(=O)O)cn(C4CC4)c3c2F)CC1
198 to 200 | N#Cc1ccc2oc3c(c(=O)c2c1)CCCC3
188 to 191 | N#Cc1ccc(Nc2nc(Oc3c(Br)cc(Br)cc3Br)ccc2[N+](=O)[O-])cc1
213 to 215 | O=C1Cn2ncnc2-c2sccc2N1
152 to 154 | Cc1cccc2c(=O)n(C)c(-c3ccc(OC4CCN(C5CCC5)CC4)cc3)nc12
55 to 56 | CC(C#N)c1cc([N+](=O)[O-])ccc1F (stereo not drawn)
204 to 205 | CCNc1nc(C)c(-c2ccnc(Nc3cccc(S(=O)(=O)NCc4ccccc4)c3)n2)s1
128 to 129 | COc1cc(/C=C/CO)ccc1OCc1nc(-c2ccco2)oc1C
242 | C#CCOc1cc(N2C(=O)c3ccccc3C2=O)c(F)cc1C#N
100 to 102 | O=C(OCc1ccccc1)N1CCC2(CC1)CN(c1ccccc1)C(=O)O2
41 to 42 | CC(C)(C)OC(=O)[C@H](O)CCc1ccc([N+](=O)[O-])cc1
172 to 175 | Fc1ccc2c(c1)Oc1ccccc1-c1nc(SC(F)(F)C(F)F)[nH]c1-2
199 to 202 | CS(=O)(=O)Nc1cccc(Nc2nc(NCCc3ccccn3)c3nc[nH]c3n2)c1

melting point [°C] | SMILES
253 to 255 | Cc1cc2c(c(C(C)(C)C)c1)OC(=O)C2=C1C(=O)Oc2c1cc(C)cc2C(C)(C)C
168 to 170 | C[C@@H](N1CC(=O)N(c2ccc(OC(F)(F)C(F)F)cc2)CC1=O)[C@@]1(c2ccc(F)cc2F)CO1
188 to 194 | COC(=O)c1sccc1S(=O)(=O)Nc1onc(C)c1Br
170 to 172 | COC(=O)C1=CCC(=NON)C=C1
157 to 158 | Clc1ncccc1-c1ncoc1-c1cccnc1Cl
130 | CCOC(=O)C1=C(N)NC(N)=C(C(=O)OCC)C1c1cc([N+](=O)[O-])ccc1Cl
> 300 | CN1CCc2c(-c3ccc([N+](=O)[O-])cc3)cc3c(c2C1)NC(=O)C3=O
135 to 136 | COC(=O)C=Cc1c(C(=O)OC)[nH]c2c(C)ccc(C)c12
89 to 91 | CS(=O)(=O)CCS(=O)(=O)C1CCCCC1
136 to 138 | Cc1cnc2c([N+](=O)[O-])ccc(Cl)c2c1Cl
132 to 133 | CCCC(=O)c1cnc2c(OC)cccc2c1Nc1sccc1C
162 to 163 | Cc1cc(=O)oc2c(C)c3c(cc12)CCCO3
264 | O=C(O)c1cnn2c(C(F)(F)F)cc(-c3ccc(Cl)c(Cl)c3)nc12
100 to 101 | O=C(NCc1ccccc1)NOCC(O)CN1CCCCC1 (stereo not drawn)
107 to 109 | Nc1c(OC[C@@H]2CO2)cccc1[N+](=O)[O-]
118 to 119 | Cc1ccccc1P(=NC(=O)OC1CCOC1)(c1ccccc1)c1ccccc1 (stereo not drawn)
297 | Cc1ccc(NC(=O)c2cnn3c(C(F)(F)F)cc(-c4ccc(C(F)(F)F)cc4)nc23)cc1S(N)(=O)=O
60 to 61 | CCOC(=O)NC(=NCCCc1c[nH]cn1)NCCSCc1ccccn1
151 to 152 | OC(CN1CCC(O)(Cc2ccccc2)CC1)c1ccc(Cl)cc1 (stereo not drawn)
164 to 166 | Cc1cc(Cl)cc(NC(=O)Cc2ccc(OC3(C(=O)O)CCC(C)C3)cc2)c1 (stereo not drawn)
184 to 186 | O=C(COc1ccccc1)NC1C(=O)N2C1SCN(O)C2C(=O)OCc1ccccc1 (stereo not drawn)
165 to 166 | Cc1cccc(-c2ccnc3c(C(=O)N=CN(C)C)cnn23)c1
290 to 292 | COc1c(F)cc2[nH]c(=O)c(=O)[nH]c2c1[N+](=O)[O-]
102 to 104 | CC1C(=O)N(CC(N)=O)c2cc(Br)ccc21 (stereo not drawn)

melting point [°C] | SMILES
157 to 159 | Fc1ccc2[nH]cc(CC3CCN(CCOc4cccc5c4OCCO5)CC3)c2c1
120 to 122 | Cc1ccc(CNC(=O)C2=C3N(CCC2=O)c2ccccc2N3CCN(C)C)cc1
91 to 93 | CCS(=O)(=O)N(C)C1CC(C)(C)Oc2ccc(OCc3ccccc3)cc21 (stereo not drawn)
141 to 142 | CC(C)c1oc(C=Cc2ccccc2)nc1C(=O)O
177 to 180 | N#Cc1cc(-c2ccoc2)c2ccc(COc3cc(F)cc(-c4ccc(F)cc4)c3)cc2n1
92 to 93 | O=C(CCc1ccc2c(c1)CCCC2)N1C(=O)OC[C@@H]1Cc1ccccc1
194 to 195 | CC(=O)ON=C(O)c1cc(C(O)=NCCO)c(C(=O)O)cc1C(=O)O
224 to 225 | Cc1csc(-c2ccc(C(=O)Nc3ccc4cc(CN5CCCC5)cnc4c3C)cc2)c1
66 | CN(C)c1ccccc1CNC(=O)C1Cc2ccccc2N1S(=O)(=O)c1ccc(-c2cccc(C(F)(F)F)c2)cc1 (stereo not drawn)
183 to 184 | O=C(NC(=O)c1c(F)cccc1F)Nc1ccc2c(c1)C(F)(F)C(F)(F)O2
174 | Cc1c(C(=O)OCc2ccccc2)sc2ccc3[nH]c4c(c3c12)CN(C)CC4
163 to 164 | CCOC(=O)c1ccc(N=C(Nc2ccc(C(=O)OCC)cc2)c2ccccc2OC)cc1
101 to 108 | CC1CN(Cc2ccccc2)CCC12CC(c1ccccc1)=NO2 (stereo not drawn)
319 to 320 | Cc1c(C#N)c(O)cc2nc(Cc3ccccc3)nn12
199 to 200 | COc1ccc2c(c1)C(=O)CC1C2C(OC(C)=O)CC2(C)C(OC(C)=O)CCC12 (stereo not drawn)
95.5 to 96.5 | COc1cccc(C(O)CNCCc2ccc(OC)c(OC)c2Cl)c1 (stereo not drawn)
74 to 76 | COc1ccc(C(=O)c2ccccc2)c(S)c1
100 to 101 | CN1CCCC1CCNc1nccc(Oc2ccc(NC(=O)c3cc(F)cc(N4CCOCC4)c3)c3ccccc23)n1 (stereo not drawn)
92 to 93 | c1cc2c3c(ccc(OCCCN4CCCCC4)c3c1)-c1cc(OCCCN3CCCCC3)ccc1-2
127 to 128 | CCOC(=O)c1ncn(Cc2ccccc2)c1OC
90 to 96 | COc1ccc(O)cc1/C=C/C(=O)CC(=O)/C=C/c1cc(O)ccc1Br
170 to 172 | O=C1c2ccccc2C(=O)N1CCCN1c2ccccc2C(c2ccccc2)=Nc2cccnc21

SMILES | melting point [°C]
CN(C)C1(c2ccccc2)CCC(=CC(=O)N2CCC(c3c[nH]c4ccccc34)C2)CC1 (stereo not drawn) | 94 to 97
COC1(OC)CCC2=C3C(c4ccc(C5OCC(C)(C)CO5)cc4)CC4(C)C(=O)CCC4C3CCC2(O)C1 (stereo not drawn) | 194 to 202
CNC(=S)N1CCSC1c1ccccc1OCCN1CC=C(c2cccc(F)c2)CC1 (stereo not drawn) | 147 to 148
CN1C(=O)C(NC(=O)OCc2ccccc2)N=C(c2ccccc2)c2ccccc21 (stereo not drawn) | 78 to 80

Source: a melting point compilation (Tetko et al.; mined from patent text by program, amines drawn as free bases though some values may be those of a salt)
